Assay results from ChEMBL document CHEMBL3872220, “Amphiphilic xanthones as a potent chemical entity of anti-mycobacterial agents with membrane-targeting properties” (Eur J Med Chem, 2016).
≈ marks a conversion by molar mass, not a printed value.

How the values were obtained:
[1] = system: Mycolicibacterium smegmatis; test: Induction of membrane integrity impairment in Mycobacterium smegmatis MC2 155 at 4 times MIC measured after 24 hrs by SYTO-9/propium iodide staining based Baclight assay relative to control; format: functional, str. MC2 155
[2] = system: Mycolicibacterium smegmatis; test: Antimycobacterial activity against Mycobacterium smegmatis MC2 155 assessed as ATP leakage by measuring extracellular ATP at 0.5 times MIC measured immediatey after addition of compounds by luciferase reporter gene assay by luciferase reporter gene assay by luciferase reporter gene assay; format: functional, str. MC2 155
[3] = Cytotoxicity against human corneal fibroblasts assessed as reduction in ATP level measured after 4 hrs by Celltiter-Glo luminescent assay; format: toxicity, Corneal fibroblast
[4] = Drug metabolism in rat liver microsomes at 1 uM preincubated for 5 mins followed by NADPH addition measured up to 30 mins by LC-MS/MS method; format: ADME; conditions: read-out: Drug metabolism
CYP3A4 = CYP3A4 (Homo sapiens, UniProt P08684); test: Inhibition of CYP3A4 in human liver microsomes at 10 uM using midazolam as substrate preincubated for 5 min followed by NADPH addition measured after 10 mins by LC-MS/MS method relative to control; format: ADME; conditions: probe midazolam
[5] = system: Mycolicibacterium smegmatis; test: Antimycobacterial activity against Mycobacterium smegmatis MC2 155 assessed as ATP leakage by measuring extracellular ATP at MIC measured immediatey after addition of compounds by luciferase reporter gene assay; format: functional, str. MC2 155
[6] = system: Mycolicibacterium smegmatis; test: Antimycobacterial activity against Mycobacterium smegmatis MC2 155 assessed as ATP leakage by measuring extracellular ATP at 2 times MIC measured immediatey after addition of compounds by luciferase reporter gene assay; format: functional, str. MC2 155
[7] = system: Mycolicibacterium smegmatis; test: Antimycobacterial activity against Mycobacterium smegmatis MC2 155 assessed as ATP leakage by measuring extracellular ATP at 0.5 times MIC measured at 1 hr of post dose by luciferase reporter gene assay; format: functional, str. MC2 155
[8] = system: Mycolicibacterium smegmatis; test: Antimycobacterial activity against Mycobacterium smegmatis MC2 155 assessed as ATP leakage by measuring intracellular ATP at 2 times MIC measured at 1 hr of post dose by luciferase reporter gene assay; format: functional, str. MC2 155
[9] = system: Mycolicibacterium smegmatis; test: Antimycobacterial activity against Mycobacterium smegmatis MC2 155 assessed as ATP leakage by measuring intracellular ATP at 4 times MIC measured at 1 hr of post dose by luciferase reporter gene assay; format: functional, str. MC2 155
[10] = system: Mycolicibacterium smegmatis; test: Antimycobacterial activity against Mycobacterium smegmatis MC2 155 assessed as ATP leakage by measuring extracellular ATP at 2 times MIC measured at 3 hrs post dose by luciferase reporter gene assay; format: functional, str. MC2 155
[11] = system: Mycolicibacterium smegmatis; test: Antimycobacterial activity against Mycobacterium smegmatis MC2 155 assessed as ATP leakage by measuring extracellular ATP at 0.5 times MIC measured at 6 hrs post dose by luciferase reporter gene assay; format: functional, str. MC2 155
[12] = system: Mycolicibacterium smegmatis; test: Antimycobacterial activity against Mycobacterium smegmatis MC2 155 assessed as ATP leakage by measuring intracellular ATP at 0.5 times MIC measured at 6 hrs post dose by luciferase reporter gene assay; format: functional, str. MC2 155
[13] = system: Mycolicibacterium smegmatis; test: Antimycobacterial activity against Mycobacterium smegmatis MC2 155 assessed as ATP leakage by measuring intracellular ATP at 2 times MIC measured at 6 hrs post dose by luciferase reporter gene assay; format: functional, str. MC2 155
[14] = system: Mycolicibacterium smegmatis; test: Antimycobacterial activity against Mycobacterium smegmatis MC2 155 assessed as ATP leakage by measuring extracellular ATP at MIC measured at 9 hrs post dose by luciferase reporter gene assay; format: functional, str. MC2 155
[15] = system: Mycolicibacterium smegmatis; test: Antimycobacterial activity against Mycobacterium smegmatis MC2 155 assessed as ATP leakage by measuring extracellular ATP at 2 times MIC measured at 9 hrs post dose by luciferase reporter gene assay; format: functional, str. MC2 155
[16] = system: Mycolicibacterium smegmatis; test: Antimycobacterial activity against Mycobacterium smegmatis MC2 155 assessed as ATP leakage by measuring extracellular ATP at 4 times MIC measured at 9 hrs post dose by luciferase reporter gene assay; format: functional, str. MC2 155
[17] = system: Mycolicibacterium smegmatis; test: Antimycobacterial activity against Mycobacterium smegmatis MC2 155 assessed as ATP leakage by measuring intracellular ATP at 4 times MIC measured at 9 hrs post dose by luciferase reporter gene assay; format: functional, str. MC2 155
[18] = system: Mycolicibacterium smegmatis; test: Antimycobacterial activity against Mycobacterium smegmatis MC2 155 assessed as ATP leakage by measuring extracellular ATP at 0.5 times MIC measured at 24 hrs post dose by luciferase reporter gene assay; format: functional, str. MC2 155
[19] = system: Mycolicibacterium smegmatis; test: Antimycobacterial activity against Mycobacterium smegmatis MC2 155 assessed as ATP leakage by measuring extracellular ATP at 2 times MIC measured at 24 hrs post dose by luciferase reporter gene assay; format: functional, str. MC2 155
[20] = system: Mycolicibacterium smegmatis; test: Antimycobacterial activity against Mycobacterium smegmatis MC2 155 assessed as ATP leakage by measuring extracellular ATP at 4 times MIC measured at 24 hrs post dose by luciferase reporter gene assay; format: functional, str. MC2 155
[21] = system: Mycolicibacterium smegmatis; test: Antimycobacterial activity against Mycobacterium smegmatis MC2 155 assessed as ATP leakage by measuring intracellular ATP at 0.5 times MIC measured at 24 hrs post dose by luciferase reporter gene assay; format: functional, str. MC2 155
[22] = system: Mycolicibacterium smegmatis; test: Antimycobacterial activity against Mycobacterium smegmatis MC2 155 assessed as ATP leakage by measuring intracellular ATP at MIC measured at 24 hrs post dose by luciferase reporter gene assay; format: functional, str. MC2 155
[23] = system: Mycolicibacterium smegmatis; test: Antimycobacterial activity against Mycobacterium smegmatis MC2 155 assessed as ATP leakage by measuring intracellular ATP at 4 times MIC measured at 24 hrs post dose by luciferase reporter gene assay; format: functional, str. MC2 155
[24] = system: Mycolicibacterium smegmatis; test: Antimycobacterial activity against Mycobacterium smegmatis MC2 155 assessed as inhibition of respiratory ATP synthesis by measuring ATP level at 4 times MIC measured after 3 hrs by luciferase reporter gene assay (reference value: 158.3%); format: functional, str. MC2 155; design: scale not given: the % may be the effect or the level left
[25] = system: Mycolicibacterium smegmatis; test: Antimycobacterial activity against Mycobacterium smegmatis MC2 155 assessed as inhibition of respiratory ATP synthesis by measuring ATP level at 2 times MIC measured after 6 hrs by luciferase reporter gene assay (reference value: 152%); format: functional, str. MC2 155; design: scale not given: the % may be the effect or the level left
[26] = system: Mycolicibacterium smegmatis; test: Antimycobacterial activity against Mycobacterium smegmatis MC2 155 assessed as inhibition of respiratory ATP synthesis by measuring ATP level at 2 times MIC measured after 6 hrs by luciferase reporter gene assay (reference value: 212.7%); format: functional, str. MC2 155; design: scale not given: the % may be the effect or the level left
[27] = Selectivity index, ratio of CC50 for human corneal fibroblasts assessed as reduction in ATP level to MIC90 for Mycobacterium bovis BCG ATCC 35734
[28] = system: Mycobacterium tuberculosis; test: Antimycobacterial activity against Mycobacterium tuberculosis clinical isolate 01;001 assessed as reduction in 2 log10 bacterial colonies measured after 14 to 21 days by agar dilution method; format: functional
[29] = system: Mycobacterium tuberculosis; test: Antimycobacterial activity against Mycobacterium tuberculosis clinical isolate 01;057 assessed as reduction in 2 log10 bacterial colonies measured after 14 to 21 days by agar dilution method; format: functional
[30] = system: Mycobacterium tuberculosis; test: Antimycobacterial activity against Mycobacterium tuberculosis clinical isolate 01;064 assessed as reduction in 2 log10 bacterial colonies measured after 14 to 21 days by agar dilution method; format: functional
[31] = system: Mycobacterium tuberculosis; test: Antimycobacterial activity against Mycobacterium tuberculosis clinical isolate 01;092 assessed as reduction in 2 log10 bacterial colonies measured after 14 to 21 days by agar dilution method; format: functional
[32] = system: Mycobacterium tuberculosis; test: Antimycobacterial activity against Mycobacterium tuberculosis clinical isolate 01;087 assessed as reduction in 2 log10 bacterial colonies measured after 14 to 21 days by agar dilution method; format: functional
[33] = system: Mycobacterium tuberculosis; test: Antimycobacterial activity against Mycobacterium tuberculosis clinical isolate 01;111 assessed as reduction in 2 log10 bacterial colonies measured after 14 to 21 days by agar dilution method; format: functional

Chain of CYP3A4 (P08684 whole entry): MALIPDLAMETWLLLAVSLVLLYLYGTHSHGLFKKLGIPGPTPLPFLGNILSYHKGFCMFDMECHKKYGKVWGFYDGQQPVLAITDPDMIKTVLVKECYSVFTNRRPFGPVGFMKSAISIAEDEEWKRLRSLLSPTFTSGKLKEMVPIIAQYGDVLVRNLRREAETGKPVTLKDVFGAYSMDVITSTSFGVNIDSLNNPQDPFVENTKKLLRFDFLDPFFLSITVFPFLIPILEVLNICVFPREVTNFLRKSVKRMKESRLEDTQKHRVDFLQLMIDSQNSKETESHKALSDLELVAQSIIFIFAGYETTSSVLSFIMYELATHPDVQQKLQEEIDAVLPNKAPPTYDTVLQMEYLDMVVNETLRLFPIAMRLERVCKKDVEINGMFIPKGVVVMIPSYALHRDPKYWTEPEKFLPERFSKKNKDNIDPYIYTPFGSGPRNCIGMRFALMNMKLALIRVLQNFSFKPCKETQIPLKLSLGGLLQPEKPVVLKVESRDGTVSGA

Row | SMILES | Activity [2] [%] | CC50 at 4 h [3] [µM] | metabolised at 0.5 h, 1 µM [4] [%] | inhibition at 10 min, 10 µM (CYP3A4) [%] | Activity [5] [%] | Activity [6] [%] | Activity [7] [%] | Activity [8] [%] | Activity [9] [%] | Activity [10] [%] | Activity [11] [%] | Activity [12] [%] | Activity [13] [%] | Activity [14] [%] | Activity [15] [%] | Activity [16] [%] | Activity [17] [%] | Activity [18] [%] | Activity [19] [%] | Activity [20] [%] | further results
1 | CCCN(CCC)CCCCOc1cc2oc3cc(OCCCCN(CCC)CCC)c(OC)c(CC=C(C)C)c3c(=O)c2c(O)c1CC=C(C)C | 0 | 108 | 10 | 0 | 2.3 | 4 | 24.7 | 2.8 | 5.7 | 97.4 | 30.6 | 69.4 | 3.9 | 89.4 | 96.1 | 84.3 | 15.7 | 53.6 | 95.3 | 88 | Activity [1]: 76.9%; Activity [21]: 46.4%; Activity [22]: 11.9%; Activity [23]: 12%; Activity [24]: 4.6%; Activity [25]: 3.9%; Activity [26]: 3.9%; Selectivity Index [27]: 15 - 40
2 | COc1c(OCCCCN2CCOCC2)cc2oc3cc(OCCCCN4CCOCC4)c(CC=C(C)C)c(O)c3c(=O)c2c1CC=C(C)C | 0 | > 150 | 0 | 32 | 2.3 | 3 | 2.2 | 69.6 | 57.3 | 63.4 | 13.2 | 86.8 | 23.3 | 58.6 | 84.4 | 92.1 | 7.9 | 47.5 | 94.7 | 95.5 | MIC [28]: 4 µg/mL (≈ 5.77 µM); MIC [29]: 4 µg/mL (≈ 5.77 µM); MIC [30]: 4 µg/mL (≈ 5.77 µM); MIC [31]: 4 µg/mL (≈ 5.77 µM); MIC [32]: 8 µg/mL (≈ 11.5 µM); MIC [33]: 4 µg/mL (≈ 5.77 µM); Activity [21]: 52.5%; Activity [22]: 11.3%; Activity [23]: 4.5%; Activity [24]: 26.8%; Activity [25]: 18.9%; Activity [26]: 11%; Selectivity Index [27]: 15 - 40
3 | CCN(CC)CCCCOc1cc2oc3cc(OCCCCN(CC)CC)c(OC)c(CC=C(C)C)c3c(=O)c2c(O)c1CC=C(C)C | 0 | 19.7 | 12.1 | 12 | 0.8 | 1.3 | 6.8 | 4.4 | 2.6 | 97.3 | 12.2 | 87.8 | 3.2 | 82.4 | 96.6 | 97.3 | 2.7 | 66.7 | 86.7 | 97.3 | MIC [28]: 4 µg/mL (≈ 6.02 µM); MIC [29]: 4 µg/mL (≈ 6.02 µM); MIC [30]: 8 µg/mL (≈ 12 µM); MIC [31]: 2 µg/mL (≈ 3.01 µM); MIC [32]: 8 µg/mL (≈ 12 µM); MIC [33]: 4 µg/mL (≈ 6.02 µM); Activity [1]: 62.5%; Activity [21]: 33.3%; Activity [22]: 55.6%; Activity [23]: 2.7%; Activity [24]: 2.6%; Activity [25]: 26.8%; Activity [26]: 2.3%
